Assay results taken from ChEMBL document CHEMBL3301361, “Experimental in vitro DMPK and physicochemical data on a set of publicly disclosed compounds”.
In brackets after ≈: the same amount, converted by molar mass.

How the values were obtained:
physchem [1] = conditions: octan-1-ol/water
in vitro [2] = conditions: mouse, plasma
in vitro [3] = conditions: human, plasma
in vitro [4] = conditions: Beagle, dog, plasma
in vitro [5] = conditions: SD, HW or BN, rat, plasma
in vitro [6] = conditions: Dunkin Hartley, guinea pig, plasma
in vitro [7] = conditions: hepatocytes
in vitro [8] = conditions: human
physchem [9] = conditions: pH 7.4 buffer
physchem [10] = test: physchem
in vitro [11] = conditions: human, hepatocytes
physchem [12] = test: physchem; remark: listed apart in the source

logD (physchem [1]; pH 7.4, LogD7.4) | fraction unbound at 5 h (in vitro [2]) | fraction unbound at 5 h (in vitro [3]; PPB) | fraction unbound at 5 h (in vitro [4]) | fraction unbound at 5 h (in vitro [5]) | fraction unbound at 5 h (in vitro [6]) | hepatocyte CLint (in vitro [7]) [µL/min/1e6 cells] | Structure (SMILES) | further results
2 | 0.137 | 0.17 | 0.16 | 0.119 |  |  | O=c1cc(OCc2ccccc2)ccn1-c1ccc2c(cnn2CCN2CCCC2)c1 | 
 |  | 0.0041 |  | 0.0044 | 0.0006 |  | C[C@@H](NC(=O)Cc1ccc(C2CC2)cc1)c1ccc(OCC(F)(F)F)cn1 | 
1.92 |  | 0.0544 |  |  | 0.103 | 135 | CCN(CCNCCc1ccc(O)c2[nH]c(=O)sc12)C(=O)CCOCCc1ccccc1 | microsomal CLint (in vitro [8]; liver microsomes): 82 µL/min/mg
 |  | 0.0606 |  |  | 0.11 | 107 | CCCN(CCNCCc1ccc(O)c2[nH]c(=O)sc12)C(=O)CCOCCc1ccccc1 | microsomal CLint (in vitro [8]; liver microsomes): > 150 µL/min/mg
2.33 |  | 0.028 |  |  | 0.0752 | 99 | CC(C)N(CCNCCc1ccc(O)c2[nH]c(=O)sc12)C(=O)CCOCCc1ccccc1 | microsomal CLint (in vitro [8]; microsomes): 60 µL/min/mg
-0.03 |  |  |  |  | 0.186 | < 3 | O=c1[nH]c2c(O)ccc([C@@H](O)CNCCCOCCNCCc3cccc(Cl)c3)c2s1 | microsomal CLint (in vitro [8]; liver microsomes): < 3 µL/min/mg
 | 0.0079 | 0.0335 | 0.0066 | 0.04 |  |  | CN(C)CCC1CCN(c2cc(C(=O)NC[C@H]3CC[C@H](CNC(=O)OC(C)(C)C)CC3)c3ccccc3n2)CC1 | 
1.46 | 0.36 | 0.173 | 0.0968 |  |  | 138 | COc1ccc2ncc(F)c(CCN3CCC(NCc4cc5c(cn4)OCCO5)CC3)c2n1 | 
2.9 | 0.0477 | 0.11 | 0.0544 | 0.101 |  | 7.08 | C[C@H](c1nc2ncccc2c(=O)n1-c1ccc(Cl)cc1)N(CC1CCS(=O)(=O)CC1)C(=O)Cc1ccc(C(F)(F)F)c(F)c1 | microsomal CLint (in vitro [8]; microsomes): 5.25 µL/min/mg
0.82 |  |  |  | 0.0836 | 0.276 |  | COc1ccccc1CCNCc1cccc(CCNC[C@H](O)c2ccc(O)c3[nH]c(=O)sc23)c1 | 
 |  | 0.0447 |  | 0.0606 | 0.0447 | 29 | COc1ccccc1CCNCc1ccc(CCNC[C@H](O)c2ccc(O)c3[nH]c(=O)sc23)cc1 | microsomal CLint (in vitro [8]; liver microsomes): 25 µL/min/mg
0.91 |  | 0.137 |  | 0.154 | 0.216 |  | COc1cccc(CNCc2cccc(CCNC[C@H](O)c3ccc(O)c4[nH]c(=O)sc34)c2)c1 | microsomal CLint (in vitro [8]; liver microsomes): 35 µL/min/mg
0.99 | 0.0191 | 0.0013 | 0.0124 | 0.002 |  |  | COc1nc(Br)cnc1NS(=O)(=O)c1ccc(Cl)s1 | solubility thermodynamic (physchem [9]): 891 µM (≈ 343 µg/mL); pKa (physchem [10]): 4.1
 | 0.266 | 0.0661 | 0.289 | 0.266 |  |  | O=C(c1c2ccccc2cc2ccccc12)N1CCC(N2CCC[C@@H](C(=O)N3CCOCC3)C2)CC1 | 
 |  | 0.0069 |  | 0.0532 | 0.0544 |  | COc1cnc(-c2ccccc2C(F)(F)CNC(=O)c2ccc(COCC(F)(F)F)nc2)cn1 | solubility thermodynamic (physchem [9]): 85.1 µM (≈ 41.1 µg/mL)
2.23 |  | 0.0313 |  | 0.0801 | 0.173 | 22 | O=C1COc2c(CCNCCN(C(=O)CCNCCc3ccc(Cl)c(Cl)c3)C3CCCCC3)ccc(O)c2N1 | microsomal CLint (in vitro [8]; microsomes): 38 µL/min/mg
2.63 | 0.0016 | 0.148 |  | 0.0008 |  | 105 | CCOC(=O)C1=C(C)NC(C)=C(C(C)=O)[C@H]1c1cccc2c(=O)cc(C)oc12 | hepatocyte CLint (in vitro [11]): 45.7 µL/min/1e6 cells; pKa (physchem [12]): 2.22; microsomal CLint (in vitro [8]; liver microsomes): > 150 µL/min/mg

logD (physchem [1]; pH 7.4, LogD7.4) | fraction unbound at 5 h (in vitro [2]) | fraction unbound at 5 h (in vitro [3]; PPB) | fraction unbound at 5 h (in vitro [4]) | fraction unbound at 5 h (in vitro [5]) | fraction unbound at 5 h (in vitro [6]) | hepatocyte CLint (in vitro [7]) [µL/min/1e6 cells] | Structure (SMILES) | further results
4.3 | 0.0009 | 0.001 | 0.0019 |  |  |  | CC(C)C[C@H](CO)Nc1nc(S[C@@H](C)c2ccccc2)nc2[nH]c(=O)sc12 | 
 | 0.002 | 0.0011 | 0.002 |  |  |  | CC(C)C[C@H](CO)Nc1nc(S[C@@H](C)c2ccccc2F)nc2nc(N)sc12 | hepatocyte CLint (in vitro [11]): 30.9 µL/min/1e6 cells
 |  | 0.107 |  | 0.208 | 0.276 | 140 | CN(CCNCCc1ccc(O)c2[nH]c(=O)sc12)C(=O)CCOCCc1ccccc1 | microsomal CLint (in vitro [8]; liver microsomes): 35 µL/min/mg
1.27 | 0.0229 |  | 0.0041 | 0.0077 |  |  | Cc1ccc2c(c1)c(-c1ccnc3c(Cl)cccc13)c(C)n2CC(=O)O | pKa (physchem [12]): 4.4; solubility thermodynamic (physchem [9]): 1320 µM (≈ 481 µg/mL); microsomal CLint (in vitro [8]; liver microsomes): 7 µL/min/mg; pKa (physchem [10]): 2.9
 | 0.0736 | 0.112 | 0.204 |  |  |  | CC(C)Oc1cc(Nc2nc(N[C@@H](C)c3ncc(F)cn3)ncc2Cl)n[nH]1 | 
3.14 | 0.0418 | 0.0801 | 0.183 | 0.035 |  |  | C[C@H](Nc1ncc(F)c(Nc2cc(C3CC3)[nH]n2)n1)c1ccc(F)cn1 | 
 | 0.0358 | 0.0358 | 0.11 | 0.009 |  |  | C[C@H](Nc1ncc(Cl)c(Nc2cc(C3CC3)[nH]n2)n1)c1ccc(F)cn1 | 
 |  |  |  | 0.0532 | 0.0437 |  | Cc1ccc2c(OCCN3CCC(Cc4cccc(NS(C)(=O)=O)c4)CC3)cccc2n1 | 
 | 0.0013 | 0.0014 | 0.0006 | 0.0011 |  |  | O=C(CN1CCN(Cc2ccn(-c3ccc(C(F)(F)F)cn3)c2)CC1)NC(c1ccc(F)cc1)c1ccc(F)cc1 | 
 |  | 0.249 |  | 0.314 | 0.299 |  | N=C(NCCCCc1ccc(OCC(O)CO)cc1)NC(=O)c1nc(Cl)c(N)nc1N (stereo not drawn) [552-02 FREE BASE] | 
 |  | 0.772 |  | 0.656 | 0.855 |  | CC(C)(C)NCC(O)c1ccc(O)c(CO)c1 (stereo not drawn) [ALBUTEROL] | 
 |  | 0.001 |  | 0.002 | 0.0139 |  | CC(=O)Nc1nc2c(Oc3cc(-c4ccc(C(F)(F)F)cc4)ncn3)cccc2s1 [AMG-517] | 
1.13 |  | 0.619 |  | 0.535 | 0.574 |  | O=C(NCC1CCCCN1)c1cc(OCC(F)(F)F)ccc1OCC(F)(F)F (stereo not drawn) [FLECAINIDE] | 
2.23 | 0.0027 | 0.0012 |  | 0.0012 |  |  | COc1ccc(Cl)cc1C(=O)NCCc1ccc(S(=O)(=O)NC(=O)NC2CCCCC2)cc1 [GLYBURIDE] | hepatocyte CLint (in vitro [11]): 14.4 µL/min/1e6 cells; solubility thermodynamic (physchem [9]): 10.5 µM (≈ 5.19 µg/mL); microsomal CLint (in vitro [8]; liver microsomes): 22 µL/min/mg; pKa (physchem [10]): 3.76
0.8 | 0.671 | 0.46 | 0.629 |  |  |  | C[C@@]1(c2cc(-c3cncnc3)c(F)cc2F)CCSC(N)=N1 [LY-2811376] | 
0.02 |  | 0.285 |  |  | 0.194 |  | O=CNc1cc([C@@H](O)CNCCc2ccc(NC[C@H](O)c3ccccc3)cc2)ccc1O [MILVETEROL] | hepatocyte CLint (in vitro [11]): < 3 µL/min/1e6 cells
2.61 |  | 0.0556 |  | 0.0784 | 0.101 | 91 | O=c1[nH]c2c(O)ccc(CCNCCS(=O)(=O)CCCOCCc3ccccc3)c2s1 [SIBENADET] | microsomal CLint (in vitro [8]; microsomes): 111 µL/min/mg

Structure (SMILES) | logD (physchem [1]; pH 7.4, LogD7.4) | fraction unbound at 5 h (in vitro [2]) | fraction unbound at 5 h (in vitro [3]; PPB) | fraction unbound at 5 h (in vitro [4]) | fraction unbound at 5 h (in vitro [5]) | fraction unbound at 5 h (in vitro [6]) | hepatocyte CLint (in vitro [7]) [µL/min/1e6 cells] | further results
N#Cc1ccc2c(c1)N(CCN1CCC(NCc3ccc4c(n3)NC(=O)CO4)CC1)C(=O)CO2 |  |  |  |  |  | 0.591 | 8.51 | logD (physchem [1]; pH 7.4): 0.23
Cc1cc(CCC[N+]23CCC(CC2)[C@@H](OC(=O)[C@](C)(c2ccccc2)N2CCCCC2)C3)ccn1 |  |  |  |  |  | 0.529 | 36.1 | 
C[C@@](C(=O)O[C@H]1C[N+]2(CCCc3ccc4ncsc4c3)CCC1CC2)(c1ccccc1)N1CCCCC1 |  |  |  |  |  | 0.244 | 66 | 
C[C@@](C(=O)O[C@H]1C[N+]2(CC(=O)Nc3ccccc3)CCC1CC2)(c1ccccc1)N1CCCCC1 |  |  |  |  |  | 0.0499 | 64 | 
C[C@@](C(=O)O[C@H]1C[N+]2(CCc3ccccc3)CCC1CC2)(c1ccccc1)N1CCCCC1 |  |  |  |  | 0.22 | 0.129 | 76 | 
C[C@@](C(=O)O[C@H]1C[N+]2(CCc3ccccc3F)CCC1CC2)(c1ccccc1)N1CCCCC1 |  |  |  |  |  | 0.194 | 130 | 
CCCN(c1cccc(S(C)(=O)=O)c1)P(=O)(c1ccccc1)c1ccccc1 |  |  |  |  | 0.186 | 0.289 |  | fraction unbound at 5 h (in vitro [3]): 0.0321
COCCN(c1cccnc1)P(=O)(c1ccccc1)c1ccccc1 |  |  |  |  | 0.376 | 0.58 |  | fraction unbound at 5 h (in vitro [3]): 0.0872
CCCN(c1cncnc1)P(=O)(c1ccccc1)c1ccccc1 |  |  |  |  |  | 0.529 |  | 
CN(C)C(=O)C(CCN1CCC(O)(c2ccc(Cl)cc2)CC1)(c1ccccc1)c1ccccc1 [LOPERAMIDE] |  | 0.0358 |  |  | 0.0544 |  |  | logD (physchem [1]; pH 7.4): 3.47; pKa (physchem [12]): 9.14; fraction unbound at 5 h (in vitro [3]): 0.0736
CCc1c(C(=O)C(N)=O)c2c(OCC(=O)O)cccc2n1Cc1ccccc1 [VARESPLADIB] |  | 0.22 |  | 0.129 | 0.0768 |  |  | fraction unbound at 5 h (in vitro [3]): 0.124
